Tested on: rat heart tissue
Test: GENECALLING differential gene expression analysis after dosing of serotonin modulating agents
Type: in vivo, Sprague Dawley rats
Procedure: Control animals received sterile water or canola oil. The animals were sacrificed 24 hours following the last dose. Liver tissue was dissected from the animals, and total RNA was recovered from the dissected tissue. cDNA was prepared and the resulting samples were processed through using GENECALLING™ differential expression analysis as described in U.S. Pat. No. 5,871,697 and in Shimkets et al., Nature Biotechnology 17:798-803 (1999). The contents of these patents and publications are incorporated herein by reference in their entirety.
Thousands of gene fragments were initially found to be differentially expressed in rat heart tissue in response to serotonin modulating agents in. Genes fragments whose expression levels were modulated greater than ±1.5-fold were selected for further analysis.
Column 6 of Table 1, entitled “Function”, lists the type of classification assigned for the protein, based on its function. The 210 single nucleic acid sequences identified herein, are referred to herein as CARDIOTOX 1-210.

In the case of `CCNC(C)Cc1cccc(C(F)(F)F)c1` (stereo not shown) [fenfluramine], the “Effects on Transcription Level: Novel gene fragment, 524 bp, 86% SI to mouse F-box protein FBX6b [AF176526]” value (CARDIOTOX 1) was “+1.4 fold”, the “Effects on Transcription Level: Novel gene fragment, 306 bp, 91% SI to mouse low density lipoprotein receptor related protein 4 [AB013874]” value (CARDIOTOX 2) was −1.1 fold and the “Effects on Transcription Level: Novel gene fragment, 540 bp, 97% SI to mouse skeletal muscle alpha-actin [X03766]” value (CARDIOTOX 3) was “+1.3 fold”. The “Effects on Transcription Level: Novel gene fragment, 80 bp” value (CARDIOTOX 4) was −1.1 fold, the “Effects on Transcription Level: Novel gene fragment, 957 bp, 99% SI to kidney injury associated moleculer HW036 [V80591]” value (CARDIOTOX 5) was −1.4 fold and the “Effects on Transcription Level: Novel gene fragment, 282 bp, 85% SI to human KIAA1515 protein [AB040948]” value (CARDIOTOX 6) was −1.3 fold. The “Effects on Transcription Level: Novel gene fragment, 405 bp, 88% SI to human 2-oxoglutarate dehydrogenase [D10523]” value (CARDIOTOX 7) was “+1.4 fold”, the “Effects on Transcription Level: UCP2” value (CARDIOTOX 8, GenBank AB010743) was −1.3 fold and the “Effects on Transcription Level: Plasma membrane Ca2 + ATPase-isoform 1” value (CARDIOTOX 9, GenBank J03753) was −1.3 fold. The “Effects on Transcription Level: Novel gene fragment, 242 bp, 97% SI to mouse HSP86 heat-shock protein [X16857]” value (CARDIOTOX 10) was “+1.6 fold”, the “Effects on Transcription Level: Novel gene fragment, 280 bp, 65% SI to human TRF1-interacting, ankyrin-related ADP-ribose polymerase [AF082556]” value (CARDIOTOX 11) was “+1.6 fold” and the “Effects on Transcription Level: Novel gene fragment, 348 bp, 88% SI to mouse Sec61 protein complex gamma subunit [U11027]” value (CARDIOTOX 12) was “+1.6 fold”. For the same compound, the “Effects on Transcription Level: Novel gene fragment 553 bp, 93% SI to mouse Sid329 [AB024984]” value (CARDIOTOX 13) was “+1.5 fold”, the “Effects on Transcription Level: Kruppel-like transcription factor” value (CARDIOTOX 14, GenBank AB020759) was “+1.7 fold” and the “Effects on Transcription Level: Ribosomal protein L3” value (CARDIOTOX 15, GenBank X62166) was “+2.3 fold”. For the same compound, the “Effects on Transcription Level: Glucose-regulated protein (GRP) 75” value (CARDIOTOX 16, GenBank S78556) was “+1.5 fold”, the “Effects on Transcription Level: Immunoglobulin heavy chain binding protein (BiP)” value (CARDIOTOX 17, GenBank M14050) was “+2.0 fold” and the “Effects on Transcription Level: Membrane-spannining proteoglycan NG2” value (CARDIOTOX 18, GenBank X56541) was −1.5 fold. The “Effects on Transcription Level: Novel gene fragment, 1294 bp, 96% SI to mouse Sui 1 (elF) homolog [AF129888]” value (CARDIOTOX 19) was “+1.6 fold”, the “Effects on Transcription Level: Novel gene fragment, 723 bp, 85% SI to human translation initiation factor elF3 p40 subunit [U54559]” value (CARDIOTOX 20) was “+1.5 fold” and the “Effects on Transcription Level: Novel gene fragment, 1324 bp, 76% SI to human flavoprotein subunit of complex II [D30648]” value (CARDIOTOX 21) was “+1.5 fold”. The “Effects on Transcription Level: Novel gene fragment, 852 bp, 81% SI to human vacuolar proton-ATPase subunit M9.2 [Y15286]” value (CARDIOTOX 22) was “+1.6 fold”, the “Effects on Transcription Level: Novel gene fragment, 178 bp, 91% SI to mouse myosin light chain-2 isoform MLC-2a [S70785]” value (CARDIOTOX 23) was “+1.5 fold” and the “Effects on Transcription Level: Novel gene fragment, 167 bp, 90% SI to mouse Rab20 [X80332]” value (CARDIOTOX 24) was “+1.8 fold”. For the same compound, the “Effects on Transcription Level: Novel gene fragment, 1070 bp, 80% SI to human muscle-specific protein [AF249873]” value (CARDIOTOX 25) was “+1.7 fold”, the “Effects on Transcription Level: Novel gene fragment, 1143 bp, 82% SI to human sarcoma amplified sequence (SAS) [U01160]” value (CARDIOTOX 26) was “+1.8 fold” and the “Effects on Transcription Level: Novel gene fragment, 74 bp,75% SI to human secreted protein [X30160] (from patent database)/[X97578] (from patent database)/potential cytokine)” value (CARDIOTOX 27) was “+1.6 fold”. For the same compound, the “Effects on Transcription Level: Novel gene fragment, 408 bp, 90% SI to human CGI-07 protein [AF132941]” value (CARDIOTOX 28) was “+1.6 fold”, the “Effects on Transcription Level: Novel gene fragment, 618 bp, 95% SI to rat progression related cDNA, ZNPE-120 3′ end partial sequence [patent database X90805]” value (CARDIOTOX 29) was “+1.6 fold” and the “Effects on Transcription Level: Novel gene fragment, 717 bp” value (CARDIOTOX 30) was “+1.6 fold”. For the same compound, the “Effects on Transcription Level: Novel gene fragment, 546 bp” value (CARDIOTOX 31) was “+1.5 fold”, the “Effects on Transcription Level: Novel gene fragment, 920 bp, 91% SI to human HSPC061 [AF161546]” value (CARDIOTOX 32) was “+1.5 fold” and the “Effects on Transcription Level: Novel gene fragment, 203 bp, 92% SI to rabbit sarcoplasmic reticulum glycoprotein [J04480]” value (CARDIOTOX 33) was −1.7 fold. The “Effects on Transcription Level: Novel gene fragment, 178 bp, 68% SI to mouse IgG receptor (beta-Fc-gamma-RII)[M63159]” value (CARDIOTOX 34) was “+1.5 fold”, the “Effects on Transcription Level: Ribosomal protein L6” value (CARDIOTOX 35, GenBank X87107) was “+1.5 fold” and the “Effects on Transcription Level: CAP2 protein (adenylyl cyclase-associated protein 2)” value (CARDIOTOX 36, GenBank U31935) was “+2.0 fold”. The “Effects on Transcription Level: Alpha-platelet-derived growth factor receptor” value (CARDIOTOX 37, GenBank M63837) was “+1.5 fold”, the “Effects on Transcription Level: Rab GD1 alpha protein” value (CARDIOTOX 38, GenBank X74402) was −1.5 fold and the “Effects on Transcription Level: PKC-zeta-interacting protein” value (CARDIOTOX 39, GenBank Y08355) was “+1.5 fold”. The “Effects on Transcription Level: ERK or MAP kinase” value (CARDIOTOX 40, GenBank X65198) was “+1.5 fold”, the “Effects on Transcription Level: Peroxisomal multifunctional enzyme type II” value (CARDIOTOX 41, GenBank U37486) was “+1.5 fold” and the “Effects on Transcription Level: HBP23 (heme-binding protein 23 kDa)” value (CARDIOTOX 42, GenBank D30035) was “+1.6 fold”. For the same compound, the “Effects on Transcription Level: Caveolae-associated protein” value (CARDIOTOX 43, GenBank U90725) was “+1.5 fold”, the “Effects on Transcription Level: Prenylated rab acceptor 1 (PRA1)” value (CARDIOTOX 44, GenBank AF025506) was “+1.6 fold” and the “Effects on Transcription Level: Novel gene fragment, 337 bp, 88% SI to rabbit cardiac ryanodine receptor (RyR-2)[U50465]” value (CARDIOTOX 45) was −1.6 fold. The “Effects on Transcription Level: Novel gene fragment, 81 bp, 85% SI to human titin [X90568]” value (CARDIOTOX 46) was −1.8 fold, the “Effects on Transcription Level: Novel gene fragment, 428 bp, 86% SI to human titin [X90568]” value (CARDIOTOX 47) was −1.8 fold and the “Effects on Transcription Level: Novel gene fragment, 374 bp, 88% SI to human titin [X90568]” value (CARDIOTOX 48) was −1.8 fold. For the same compound, the “Effects on Transcription Level: Novel gene fragment, 428 bp, 85% SI to human titin [90568]” value (CARDIOTOX 49) was −1.9 fold, the “Effects on Transcription Level: Novel gene fragment, 1216 bp, 93% SI to mouse mircotubule-associated protein (MAP) 1B protein [AF115776]” value (CARDIOTOX 50) was −1.7 fold and the “Effects on Transcription Level: Novel gene fragment, 1115 bp, 83% SI to human KIAA0549 protein [AB011121]” value (CARDIOTOX 51) was −1.8 fold. The “Effects on Transcription Level: Novel gene fragment, 153 bp” value (CARDIOTOX 52) was −1.7 fold, the “Effects on Transcription Level: Novel gene fragment, 89 bp, 93% SI to human putative glialblastoma cell differentiation-related protein (GBDR1) [AF068195]” value (CARDIOTOX 53) was −1.6 fold and the “Effects on Transcription Level: Rho-associated kinase beta” value (CARDIOTOX 54, GenBank U61266) was −1.8 fold. The “Effects on Transcription Level: Adenylate kinase 3” value (CARDIOTOX 55, GenBank D13062) was “+1.6 fold”, the “Effects on Transcription Level: Amyloid beta-peptide binding protein” value (CARDIOTOX 56, GenBank AF049878) was “+1.6 fold” and the “Effects on Transcription Level: Mitochondrial adenine nuleotide translocator” value (CARDIOTOX 57, GenBank D12771) was “+1.6 fold”. For the same compound, the “Effects on Transcription Level: Novel gene fragment, 710 bp, 94% SI to mouse chromatin structural protein homolog Supt5 hp (Supt5 h)[U88539]” value (CARDIOTOX 58) was “+3.4 fold”, the “Effects on Transcription Level: Novel gene fragment, 186 bp, 66% SI to human N-acetylglucosaminyltransferase 1 (GlcNAc-TI)[M55621]” value (CARDIOTOX 60) was −3.0 fold and the “Effects on Transcription Level: Novel gene fragment, 238 bp, 95% SI to mouse MAP kinase-activated protein kinase 2 [X76850]” value (CARDIOTOX 61) was −2.4 fold. The “Effects on Transcription Level: Novel gene fragment, 173 bp, 70% SI to G protein-coupled receptor kinase GRK4 [X97568]” value (CARDIOTOX 62) was −6.6 fold, the “Effects on Transcription Level: Novel gene fragment, 133 bp, 77% SI to human apoptosis related protein hSARP3 [patent database: V19114]” value (CARDIOTOX 63) was −3.1 fold and the “Effects on Transcription Level: Novel gene fragment, 477 bp, 98% SI to peroxisomal phytanoyl-CoA hydroxylase (PHYH) [AF121345]” value (CARDIOTOX 64) was “+4.8 fold”. The “Effects on Transcription Level: Novel gene fragment, 413 bp, 95% SI to mouse dihydrolipoamide dehydrogenase (Dld) [U73445]” value (CARDIOTOX 65) was “+2.3 fold”, the “Effects on Transcription Level: Novel gene fragment, 726 bp, 76% SI to human succinate dehydrogenase flavoprotein subunit (SDH) [L21936]” value (CARDIOTOX 66) was −4.0 fold and the “Effects on Transcription Level: Novel gene fragment, 440 bp, 92% SI to mouse cytochrome c oxidase Vllc [X52940]” value (CARDIOTOX 67) was “+4.0 fold”. For the same compound, the “Effects on Transcription Level: Novel gene fragment, 276 bp, 80% SI to human titin [X90568]” value (CARDIOTOX 68) was −12.7 fold, the “Effects on Transcription Level: Novel gene fragment, 149 bp, 70% SI to human titin [X90568]” value (CARDIOTOX 69) was −5.6 fold and the “Effects on Transcription Level: Novel gene fragment, 467 bp, 94% SI to mouse gelsolin [J04953]” value (CARDIOTOX 70) was −3.6 fold. For the same compound, the “Effects on Transcription Level: Novel gene fragment, 535 bp, 90% SI to mouse slow/cardiac troponin C [M29793]” value (CARDIOTOX 71) was −3.7 fold.

— US20040005537A1, “Method of identifying toxic agents using differential gene expression” (priority 2000, published 2004)
